Measurements reported in patent US7138361B2, “Herbicidal heterocycles” (E. I. du Pont de Nemours and Company, priority 2000, dated 2006).

Legend:
Assay type in all cases: in vivo
Sunflower [1] = test: Test C preemergence; conditions: Rate 250 g/ha, visual evaluation after 12 to 14 days
[2] = test system: morning glory (Ipomoea hederacea); test: Test B postemergence; conditions: 13 to 15 days
How it was run: (§1)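 Ratings on a 0 to 100 visual scale (100 complete control) compare treated plants with controls 13 to 15 days after application. Treatments were pre- or postemergence sprays of compound in non-phytotoxic solvent with surfactant.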

[3] = test system: lambsquarters (Chenopodium album); test: Test B postemergence; conditions: 13 to 15 days
How it was run: as §1

[4] = test system: velvetleaf (Abutilon theophrasti); test: Test B postemergence; conditions: 13 to 15 days
How it was run: as §1

corn (Zea mays) [5] = test: Test B postemergence; conditions: 13 to 15 days
How it was run: as §1

[6] = test system: crabgrass (Digitaria sanguinalis); test: Test B postemergence; conditions: 13 to 15 days
How it was run: as §1

[7] = test system: barnyardgrass (Echinochloa crus-galli); test: Test B postemergence; conditions: 13 to 15 days
How it was run: as §1

wild oat (Avena fatua) = test: Test B postemergence; conditions: 13 to 15 days
How it was run: as §1

[8] = test system: pigweed (Amaranthus retroflexus); test: Test B postemergence; conditions: 13 to 15 days
How it was run: as §1

[9] = test system: cocklebur (Xanthium strumarium); test: Test B postemergence; conditions: 13 to 15 days
How it was run: as §1

[10] = test system: wheat (Triticum aestivum); test: Test B postemergence; conditions: 13 to 15 days
How it was run: as §1

[11] = test system: giant foxtail (Setaria faberii); test: Test B postemergence; conditions: 13 to 15 days
How it was run: as §1

[12] = test system: Surinam grass (Brachiaria decumbens); test: Test B postemergence; conditions: 13 to 15 days
How it was run: as §1

[13] = test system: blackgrass (Alopecurus myosuroides); test: Test B postemergence; conditions: 13 to 15 days
How it was run: as §1

Sunflower [14] = test: Test C preemergence; conditions: Rate 125 g/ha, scale 0 to 100, 0 no effect, 100 complete control
[15] = test system: smallflower flatsedge (Cyperus difformis); test: Test C flooded paddy test; conditions: for Flatsedge plant response rating: Flooded Paddy, scale 0 to 100, 0 no effect, 100 complete control; for Plant response rating, Flatsedge: flooded paddy test, scale 0 to 100 (0 no effect, 100 complete control)
How it was run: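 Visual ratings (0 = no effect, 100 = complete control) were made 12–14 days after treatment, relative to greenhouse controls. Plants in the flooded paddy test were rice, smallflower flatsedge, duck salad and barnyardgrass, treated at the 2-leaf stage.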

[16] = test system: morning glory (Ipomoea hederacea); test: Test B preemergence; conditions: scale 0 to 100, 0 no effect, 100 complete control
How it was run: as §1

[17] = test system: lambsquarters (Chenopodium album); test: Test B preemergence; conditions: scale 0 to 100, 0 no effect, 100 complete control
How it was run: as §1

[18] = test system: velvetleaf (Abutilon theophrasti); test: Test B preemergence; conditions: scale 0 to 100, 0 no effect, 100 complete control
How it was run: as §1

corn (Zea mays) [19] = test: Test B preemergence; conditions: scale 0 to 100, 0 no effect, 100 complete control
How it was run: as §1

[20] = test system: crabgrass (Digitaria sanguinalis); test: Test B preemergence; conditions: scale 0 to 100, 0 no effect, 100 complete control
How it was run: as §1

[21] = test system: barnyardgrass (Echinochloa crus-galli); test: Test B preemergence; conditions: scale 0 to 100, 0 no effect, 100 complete control
How it was run: as §1

rice (Oryza saliva) = test: Test B preemergence; conditions: scale 0 to 100, 0 no effect, 100 complete control
How it was run: as §1

[22] = test system: pigweed (Amaranthus retroflexus); test: Test B preemergence; conditions: scale 0 to 100, 0 no effect, 100 complete control
How it was run: as §1

[23] = test system: cocklebur (Xanthium strumarium); test: Test B preemergence; conditions: scale 0 to 100, 0 no effect, 100 complete control
How it was run: as §1

[24] = test system: giant foxtail (Setaria faberii); test: Test B preemergence; conditions: scale 0 to 100, 0 no effect, 100 complete control
How it was run: as §1

[25] = test system: Surinam grass (Brachiaria decumbens); test: Test B preemergence; conditions: scale 0 to 100, 0 no effect, 100 complete control
How it was run: as §1

[26] = Rate 125 g/ha, scale 0 (no effect) to 100 (complete control)
[27] = Rate 500 g/ha, scale 0 to 100, 0 is no effect, 100 is complete control

Compound: CC(C)c1ccn(C2OCN(c3cccc(C(F)(F)F)c3)C2=O)n1 (stereo not drawn) [Compound 27]
- Plant response rating (0 to 100), Sunflower (Sunflower [1]): 20
- Plant response rating, Morningglory [2, 26]: 0
- Plant response rating, Morningglory [2, 27]: 50
- Plant response rating, Lambsquarters [3, 26]: 50
- Plant response rating, Lambsquarters [3, 27]: 90
- Plant response rating, Velvetleaf [4, 26]: 0
- Plant response rating, Velvetleaf [4, 27]: 0
- Plant response rating, Corn (corn (Zea mays) [5]; [26]): 0
- Plant response rating, Corn (corn (Zea mays) [5]; [27]): 10
- Plant response rating, Crabgrass [6, 26]: 20
- Plant response rating, Crabgrass [6, 27]: 40
- Plant response rating, Barnyardgrass [7, 26]: 20
- Plant response rating, Barnyardgrass [7, 27]: 60
- Plant response rating, Wild Oat (wild oat (Avena fatua); [26]): 0
- Plant response rating, Wild Oat (wild oat (Avena fatua); [27]): 0
- Plant response rating, Pigweed [8, 26]: 40
- Plant response rating, Pigweed [8, 27]: 60
- Plant response rating, Cocklebur [9, 26]: 0
- Plant response rating, Cocklebur [9, 27]: 30
- Plant response rating, Wheat [10, 26]: 0
- Plant response rating, Wheat [10, 27]: 0
- Plant response rating, Foxtail, Giant [11, 26]: 0
- Plant response rating, Foxtail, Giant [11, 27]: 30
- Plant response rating, Surinam grass [12, 26]: 0
- Plant response rating, Surinam grass [12, 27]: 20
- Plant response rating, Blackgrass [13, 26]: 0
- Plant response rating, Blackgrass [13, 27]: 0
- Plant response rating, Sunflower (Sunflower [14]): 20
- Flatsedge plant response rating ([15]; Rate 250 g/ha): 100
- Flatsedge plant response rating ([15]; Rate 500 g/ha): 100
- Plant response rating, Flatsedge ([15]; Rate 62 g/ha): 90
- Plant response rating, Flatsedge ([15]; Rate 125 g/ha): 90
- Plant response rating, Morningglory ([16]; Preemergence, Rate 500 g/ha): 0
- Plant response rating, Morningglory ([16]; preemergence, Rate 125 g/ha): 0
- Plant response rating, Lambsquarters ([17]; Preemergence, Rate 500 g/ha): 100
- Plant response rating, Lambsquarters ([17]; preemergence, Rate 125 g/ha): 100
- Plant response rating, Velvetleaf ([18]; Preemergence, Rate 500 g/ha): 0
- Plant response rating, Velvetleaf ([18]; preemergence, Rate 125 g/ha): 0
- Plant response rating, Corn (corn (Zea mays) [19]; Preemergence, Rate 500 g/ha): 0
- Plant response rating, Corn (corn (Zea mays) [19]; preemergence, Rate 125 g/ha): 0
- Plant response rating, Crabgrass ([20]; Preemergence, Rate 500 g/ha): 90
- Plant response rating, Crabgrass ([20]; preemergence, Rate 125 g/ha): 0
- Plant response rating, Barnyardgrass ([21]; Preemergence, Rate 500 g/ha): 100
- Plant response rating, Barnyardgrass ([21]; preemergence, Rate 125 g/ha): 30
- Plant response rating, Rice (rice (Oryza saliva); Preemergence, Rate 500 g/ha): 40
- Plant response rating, Rice (rice (Oryza saliva); preemergence, Rate 125 g/ha): 0
- Plant response rating, Pigweed ([22]; Preemergence, Rate 500 g/ha): 100
- Plant response rating, Pigweed ([22]; preemergence, Rate 125 g/ha): 100
- Plant response rating, Cocklebur ([23]; Preemergence, Rate 500 g/ha): 0
- Plant response rating, Cocklebur ([23]; preemergence, Rate 125 g/ha): 0
- Plant response rating, Foxtail, Giant ([24]; Preemergence, Rate 500 g/ha): 90
- Plant response rating, Foxtail, Giant ([24]; preemergence, Rate 125 g/ha): 0
- Plant response rating, Surinam grass ([25]; Preemergence, Rate 500 g/ha): 0
- Plant response rating, Surinam grass ([25]; preemergence, Rate 125 g/ha): 0
